Measurements as given in patent US6358700B2, “Method for detecting microorganisms by fluorescent staining using hydrostatic pressure” (Japan Marine Science and Technology Center, priority 1998, dated 2002).
pIC50: −log10 of the molar value.

Key:
IFO10159 strain = test: Accumulation of CF and CDCF under elevated hydrostatic pressure (CytoFluor 2350); format: cell-based, Saccharomyces cerevisiae; settings: ordinary pressure; for total fluorescence intensity of labeled cells: 10 μM dye, one hour
Description: (§1) Cells of Saccharomyces cerevisiae were grown in YPD (1% yeast extract, 2% bactopeptone, 2% D-glucose) broth at 24° C. Cells from a log-phase culture (2×10^7 to 4×10^7 cells/ml) were collected by centiifugation and re-suspended in fresh YPD containing 50 mM citric acid (pH 3.0 or pH 5.0), then placed in plastic tubes (Cryotubes, available from Nunc) at 2×10^7 to 3×10^7 cells/ml. After sealing with Parafilm, the tubes were put into titanium pressure vessels, followed by application of a desired hydrostatic pressure. The each required hydrostatic pressure was established within 2 min using a hand pump (available from Rigo-sha, Japan). To remove samples, the pressure was released in approximately 15 sec.
(§2) Cells originated fiom a log-phase culture (2×10^7 to 4×10^7 cells/ml) were incubated with 10 μM CFDA (Sigma, Cat. No. C-5041) in YPD containing 50 mM citric acid (pH 3.0), or 10 μM CDCFDA Molecular Probe, Cat. No. C-369) in YPD containing 50 mM citric acid (pH 5.0), respectively, under varying hydrostatic pressures ranging from ordinary pressure to 60 MPa. To analyze the dependence, on glucose, of pressure-induced dye-accumulation, vegetative cells were collected, washed twice in distilled water and starved for 30 min on ice. Then cells were suspended in MBA buffer (100 mM MES-Bis-Tris, 100 mM ammonium sulfate, pH 5.0), followed by addition of CDCFDA and application of a desired hydrostatic pressure of up to 6OMPa for one hour in the presence of D-glucose in various concentrations.
(§3) To analyze the effect of 2-deoxyglucose, cells were incubated with CDCFDA in MBA buffer containing 100 mM D-glucose. Unless otherwise specified, the final concentration of the fluorescent dye was 10 μM. After applying a desired hydrostatic pressure for one hour, the cells were washed twice with 10 mM MES-Bis-Tris (pH 5.0) and suspended in MB buffer. Fluorescence of the labeled cells emitted at 535 nm with excitation at 485 nm was detected using CytoFluor 2350 Plate Reader (available from Mlipore), or an RF5300PC spectrofluorometer (available from Shimazu, Japan). Fluorescence intensity (a. u.; arbitrary units) was recorded as the fluorescence of labeled cells minus the fluorescence of non-labeled cells for 10^7 cells.
(§4) Cells of the IFO2347 strain were incubated with 10 μM of CFDA or CDCFDA and cultured for one hour under each hydrostatic pressure condition. The stained cells were analyzed using Cytofluor 2350. The results thus obtained are plotted on FIG. 1A Similarly, cells of IFO10159 strain were inoculated with 10 μM of CFDA or CDCFDA and cultured for one hour under each hydrostatic pressure condition. The stained cells were analyzed using Cytofluor 2350. The results thus obtained are plotted on FIG. 1B. In FIGS. 1A and 1B, ◯ and ● represent cells stained with CF and those stained with CDCF, respectively.

IFO2347 strain [1] = test: as above; format: cell-based, Saccharomyces cerevisiae; settings: 10 μM CFDA or CDCFDA, one hour, FIG. 1A
Description: as §1, §2, §3, §4

IFO2347 strain [2] = test: Flow cytometry of CDCFDA-labeled cells; format: cell-based, Saccharomyces cerevisiae; settings: for mean fluorescence of labeled cells / peak fluorescence of labeled cells: 10 μM CDCFDA, 24° C., one hour
Description: Cells were incubated with 10 μM CFDA or 10 μM CDCFDA and cultivated under several hydrostatic pressures for one hour. After decompression, the labeled (or stained) cells were washed twice with distilled water and re-suspended in MB buffer. The cells were analyzed using the Bryte-HS Flow Cytometry System (available from Bio-Rad) under ordinary pressure.
The IFO2347 strain was cultured at 24° C. for one hour in the presence of 10 μM CDCFDA, under a hydrostatic pressure of 0.1, 30 or 60 MPa. The CDCFDA-labeled cells (about 100,000) were analyzed using the Bryte-HS Flow Cytometry System. FIG.2A depicts the histograms showing the intensity distribution of populations of IFO2347 cells labeled with CDCFDA observed after the cultivation.

IFO2347 strain [3] = test: Dependency on glucose metabolism of pressure-induced CDCF accumulation; format: cell-based; settings: Saccharomyces cerevisiae, MBA buffer with 100 mM D-glucose, 10 μM CDCFDA, FIG. 4B, read-out: concentration at which half-maximal inhibition of pressure-induced CDCF accumulation occurred
Description: as §2, with “Then cells were suspended in MBA buffer (100 mM MES-Bis-Tris, 100 mM ammonium sulfate, pH 5.0), followed by addition of CDCFDA and application of a desired hydrostatic pressure of up to 6OMPa for one hour in the presence of D-glucose in various concentrations.” left out
as §3, with “Unless otherwise specified, the final concentration of the fluorescent dye was 10 μM. After applying a desired hydrostatic pressure for one hour, the cells were washed twice with 10 mM MES-Bis-Tris (pH 5.0) and suspended in MB buffer.” left out
The cells of the strain were cultured at 24° C. for one hour in MBA buffer containing a desired amount of D-glucose at a predetermined hydrostatic pressure (0.1 MPa (◯), 30 MPa (●)) in the presence of 10 μM CDCFDA. The labeled cells were analyzed using CytoFluor 2350. […]

IFO2347 strain [4] = test: Effects of hydrostatic pressure on hydrolysis of CDCFDA; format: cell-based, Saccharomyces cerevisiae; settings: for fluorescence intensity reached (hydrolysis under pressure): 50 μM CDCFDA, FIG. 3A
From the text: Fluorescence emission was examined under several hydrostatic pressures in a hydrostatic chamber provided with transparent windows which were made by sapphire (size: 10×8 mm). Each sample in a transparent cuvette was placed in the chamber which was set up in an RF5300PC spectrofluorometer. Fluorescence was emitted at 535 nm with excitation at 485 nm. The fluorescence intensity of the labeled cells was strong enough to be detected through the sapphire windows, even though the emission was reduced compared to the analysis without such a hydrostatic chamber equipped with a sapphire window. Each hydrostatic pressure was applied using a hand pump (available from Teramecs, Co. Ltd., Japan).
A cuvette containing the IFO2347 strain was fitted to a container, followed by addition of 50 μM CDCFDA, application of a hydrostatic pressure at a point P (see FIG. 3A), and examination of the fluorescence intensity change with time in a hydrostatic chamber equipped with RF5300 Fluorescent Spectrometer. The results obtained are plotted on FIG. 3A The fluorescence intensity increased to 300 a.u. and 130 a.u. when hydrostatic pressures of 0.1 MPa (ordinary pressure) and 60 MPa were applied, respectively (FIG. 3A). On the other hand, the fluorescence intensity increased to 770 a.u. when a pressure of 30 MPa was applied.
Cells of the IFD2347 strain were pre-incubated at several hydrostatic pressures for one hour in YPD culture medium (pH 5.0), and subsequently the pre-incubated cells were placed into a cuvette, followed by addition of 50 μM of CDCFDA to the pressure-adapted cells at ordinary pressure and examination of any change in the fluorescence intensity (the hydrolysis activity) by the same method as used above. The results thus obtained are plotted on FIG. 3B. […] Almost identical results were obtained when using CFDA (data not shown).

Carboxydichlorofluorescein [CDCF]
fluorescence intensity relative to non-labeled cells (IFO10159 strain): about 2.5 fold
total fluorescence intensity of labeled cells (IFO10159 strain): 24.8 a. u. per 10^7 cells
hydrostatic pressure at which accumulation peaks (IFO2347 strain [1]): 30 MPa
mean fluorescence of labeled cells (IFO2347 strain [2]; 0.1 MPa (ordinary pressure)): 26 a.u.
peak fluorescence of labeled cells (IFO2347 strain [2]; 0.1 MPa (ordinary pressure)): 23 a.u.
increase of accumulation of CDCF (IFO2347 strain [2]; 30 MPa for one hour versus ordinary pressure): four to six folds
mean fluorescence of labeled cells (IFO2347 strain [2]; 30 MPa): 162 a.u.
peak fluorescence of labeled cells (IFO2347 strain [2]; 30 MPa): 92 a.u.
enhancement of staining (IFO2347 strain [2]; 60 MPa): not enhanced

Carboxyfluorescein [CF]
fluorescence intensity relative to non-labeled cells (IFO10159 strain): 1.6 fold
total fluorescence intensity of labeled cells (IFO10159 strain): 15.5 a. u. per 10^7 cells
hydrostatic pressure at which accumulation peaks (IFO2347 strain [1]): 40 MPa

O=CC[C@@H](O)[C@H](O)[C@H](O)CO [2-deoxyglucose]
pIC50 (IFO2347 strain [3]): ~1.92

Carboxydichlorofluorescein diacetate [CDCFDA]
fluorescence intensity reached (hydrolysis under pressure) (IFO2347 strain [4]; 0.1 MPa (ordinary pressure)): 300 a.u.
fluorescence intensity reached (hydrolysis under pressure) (IFO2347 strain [4]; 30 MPa): 770 a.u.
fluorescence intensity reached (hydrolysis under pressure) (IFO2347 strain [4]; 60 MPa): 130 a.u.
rate of hydrolysis by cells adapted to 30 MPa relative to cells adapted to 0.1 MPa or 60 MPa (IFO2347 strain [4]; pre-incubation one hour, 50 μM CDCFDA added at ordinary pressure, FIG. 3B): approximately three times greater
